Measurements taken from patent publication US20100317731A1, “Hyperhidrosis treatment” (priority 2009, published 2010).

Legend:
Format in all cases: in vivo, human
[1] = test system: patients who complained of excessive sweating; assay: Open label study of 26 patients with excessive sweating treated with topiramate; conditions: 26 patients (18 females, 8 males), total daily dose 25 mg to 100 mg, subjective assessment and report, all on one or more antidepressant
Description: In an open label study of 26 patients (18 females and 8 males) who complained of excessive sweating were treated with topiramate on the basis of off label prescribing. The patients were informed of the off-label nature of the treatment and they were counseled about the potential side effects of topiramate. The total daily dose ranged from 25 mg to 100 mg. Over 95% of patients experienced a significant response based on their subjective assessment and report. Patients were all adults with an age range from 25 yrs to 79 yrs. All the patients were on one or more antidepressant including various SSRI's with or without Bupropion. However, several of the patients had experienced excessive sweating for other reasons and before the use of antidepressants, even though adding the antidepressant exacerbated their underlying hyperhidrosis. Some of the underlying causes included perimenopause/menopause as well as primary or idiopathic hyperhidrosis. some had identified vulnerability from before, only made worse by antidepressants.

[2] = test system: patients with excessive sweating (drug-induced hyperhidrosis); assay: Clinical examples: single patient case reports of excessive sweating treated with topiramate
[3] = test system: patients with excessive sweating; assay: Inventor's data and observations in patients with excessive sweating
Text: Based on data and observations that the inventor has, they have found topiramate (Topamax®) to have the following, previously undiscovered, beneficial pharmacological effects for patients with excessive sweating: The patient population in which the inventor has seen these benefits included both men and women ranging in age from 25 to 79 years. […] Optionally, the topiramate can be taken as a low dose on an as-needed basis to treat these sweating episodes. […] The inventor became convinced that topiramate was effective in the treatment of excessive sweating. They observed the improvement in patients whose sweating was induced by various antidepressant medications. Some experienced such sweating severity that they had to change their bedding at night as well as their night clothes. Others found it too embarrassing in the day time to the extent that it interfered with their work and social life; and some became reluctant to take their required antidepressant.

[4] = men and women aged 25 to 79 years
[5] = patients with excessive sweating

CC1(C)O[C@@H]2[C@@H](CO[C@@]3(COS(N)(=O)=O)OC(C)(C)O[C@@H]23)O1 [topiramate]
patients who experienced a significant response [1]: Over 95% | excessive sweating, patient report ([2]; Example 1, a person, Cymbalta 60 mg daily, retrial of topiramate 25 mg twice daily): much better | excessive sweating, patient report ([2]; Example 1, a person, Cymbalta 80 mg daily, topiramate raised from 50 mg daily to 50 mg twice daily): after initial improvement with the topiramate increase, the excessive sweating has recurred | excessive sweating, patient report ([2]; Example 2, a person, Cymbalta and Wellbutrin XL, topiramate 25 mg daily): much better | adverse effects, patient report ([2]; Example 2, a person, topiramate 25 mg per day): no adverse effects | excessive sweating, patient report ([2]; Example 3, a person, Effexor XR 300 mg daily, topiramate 50 mg daily): much improvement | adverse effects, patient report ([2]; Example 3, a person, topiramate 50 mg daily): no adverse effects | excessive sweating, patient report ([2]; Example 4, a person, Zoloft, topiramate 25 mg twice daily): improved | effectiveness when taken on an as needed basis ([2]; Example 4, a person, Zoloft, topiramate as needed): effective | adverse effects, patient report ([2]; Example 4, a person, topiramate): no adverse effects | excessive sweating, patient report ([2]; Example 5, a person, Wellbutrin XL, Cymbalta, Pristiq, topiramate 50 mg daily): suboptimal improvement | excessive sweating, patient report ([2]; Example 5, a person, topiramate 50 mg twice daily, improvement reported for five months thereafter): satisfactory | excessive perspiration, patient report ([2]; Example 6, a person, Wellbutrin XL and Cymbalta, topiramate 25 mg daily, over eighteen months): satisfactory resolution | adverse effects, patient report ([2]; Example 6, a person, topiramate 25 mg daily, over eighteen months): without any adverse effects | excessive sweating, patient report ([2]; Example 7, a person, Aricept and Cymbalta 30 mg, topiramate 25 mg then 50 mg at bedtime): complete resolution | adverse effects, patient report ([2]; Example 7, a person, topiramate 25 mg then 50 mg at bedtime): no adverse effects | effectiveness against drug-induced hyperhidrosis at low dose ([3]; doses as low as 12.5 mg per day in an adult): highly effective | incidence of side effects at low dosage ([3]; low dosage): without significant incidence of those side effects | benefit in the patient population [3, 4]: all benefited | side effects in the patient population [3, 4]: minimal side effects | effect on excessive sweating caused by antidepressants and similar medications [3, 5]: Substantial improvement | effect on excessive sweating caused by primary or idiopathic hyperhidrosis [3, 5]: Substantial improvement | effect on excessive sweating from other miscellaneous causes of hyperhidrosis [3, 5]: Substantial improvement | effect on excessive sweating, idiopathic or drug-induced [3, 5]: Substantial improvement | effectiveness when used on an as needed basis [3, 5]: effective
